Measurements reported in US11913884B2, “Visible light-activated dyes and methods of use thereof” (William Marsh Rice University, priority 2019, dated 2024).

How the values were obtained:
[1] = UV-vis absorption and fluorescence spectra of thio-caged and uncaged fluorophores; assay type: physicochemical; settings: DMSO (50 μM)
Protocol: Encouraged by the excellent photoactivation properties of SNile Red, Lawesson's reagent was employed to introduce thiocarbonyl moieties into several different fluorophores, such as phthalimide (PI), coumarin (Cou) and acridone (ACD), obtaining yields ranging from 20-80% (FIG. 1). Next, characterization of the spectroscopic and photochemical properties of these thiocaged fluorophores and their oxidized products using UV-vis and fluorescence spectroscopies was performed (Table 1). […] Double thiocarbonyl substitution on 4-dimethylaminophthalimide (4-DMAP, FIG. 1) produced an even larger bathochromic shift of 166 nm. […] It was hypothesized that the red-shift and enhanced absorption seen with thiocarbonyl compounds were due to the reduced energy gap between the HOMO-LUMO in these fluorophores. This is consistent with the computational results discussed below. […] To assess the efficiency of photoactivation for the various thio-caged fluorophores, UV-vis and fluorescence spectra were recorded after different irradiation times (FIGS. 4-8).
(§1) The ^1H NMR spectroscopic measurements were carried out using a Bruker-600 NMR at 600 MHz with tetramethysilane (TMS) as internal reference. Electrospray ionization (ESI) mass spectra were performed on a Bruker MicroToF ESI LC-MS System in positive-ion mode. The steady-state absorption spectra were obtained with a ThermoFisher Evolution 220 UV-Vis spectrophotometer in 1 cm path length quartz cells. Fluorescence spectra were recorded using spectrophotometer (SPEX FluoroLog-3). Quantum yield in DMSO was measured relative to the fluorescence of Rhodamine B (Φ=0.65) in ethanol or quinine sulfate (Φ=0.55) in 0.5 M·L^−1 H2SO4. FT-IR spectrum was taken on a PerkinElmer Spectrum 100 FT-IR Spectrometers. Confocal fluorescent images of living cells were performed using Nikon A1R-si Laser Scanning Confocal Microscope (Japan), equipped with lasers of 405/488/561/638 nm. STORM images were performed on a NSTORM (Nikon, Japan), featuring a CFI Apo TIRF 100× oil objective (NA 1.49) on an inverted Nikon Ti Eclipse microscope with a quad cube filter (Chroma, zt405/488/561/640 m-TRF), piezo stage, and Perfect Focus System (Nikon) for Z-stability. Light source are hand-held UV lamp, BlueView Transilluminator (470 nm centred, Vernier), Prior Lumen200 with 615/30 filter and 850 LED (Mouser Electronics).

[2] = Fluorescence quantum yield determination; assay type: physicochemical; settings: DMSO; reference rhodamine B in ethanol or quinine sulfate in 0.5 M H2SO4
Protocol: as §1
Quantum yields were measured with Rhodamine B as reference (Φ=0.65) or quinine sulfate (Φ=0.55) in 0.5 M H2SO4. Fluorescence measurements were performed in 1 cm quartz cells with 5 μM samples in DMSO on spectrophotometer (SPEX FluoroLog-3) (slits 5×5). The fluorescence quantum yield, Φ (sample), were calculated according to equation as following:
[formula] Φ: quantum yield; I: integrated emission intensity; OD: optical density at the excitation wavelength; d: refractive index of solvents, dDMSO=1.478; dethanol=1.36; dwater=1.33.

[3] = tested on: 3T3-L1 cells; assay: CCK-8 assay (cytotoxicity); assay type: cell-based; settings: 4 μM, 24 hours, Cell Counting Kit-8
Protocol: Before testing the utility of thio-caged fluorophores for investigating biological systems, the cytotoxicity of SNile Red in adipocytes was evaluated using Cell Counting Kit-8. At a concentration of 4 μM SNile Red, 90% of 3T3-L1 cells remained viable even after 24 hours (FIG. 10). Thio-caged dyes were then used to obtain subcellular structural data via fluorescence imaging of adipocytes. Nile Red and BODIPY are the fluorescent dyes most commonly used for lipid imaging (Corsaro and Pistara, 1998, Spiller et al., 1998, Tang et al., 2013). Confocal laser scanning microscopy (CLSM) was used to determine the specificity of SNile Red localization in adipocytes differentiated from 3T3-L1 cells. For colocalization studies, adipocytes were stained with 2 μM SNile Red and 100 nM BODIPY 493/503 for 10 mins.
3T3-L1 cells were seeded in flat-bottomed 96-well plates, 1×10^4 cells per well, with 200 μL complete culture media for 24 h. […] After 2 hours, the absorbance at 450 nm was read by 96-well plates reader. The viability of […] cells was calculated by the following equation: CV=(As−Ab)/(Ac−Ab)×100%
CV stands for the viability of cells, As, Ac and Ab stand for the absorbance of cells containing SNile Red cell control (0 μM SNile Red) and blank control (wells containing neither cells nor SNile Red).

- λem [1]: 616 nm
- ø (fluorescence quantum yield) [2]: <0.001
Structure (SMILES): CCN(CC)c1ccc2nc3c4ccccc4c(=S)cc-3oc2c1 [SNile Red]
- cells remaining viable [3]: 90%
